Data reported in ChEMBL document CHEMBL1201862, “PubChem BioAssay data set” (2004).
The source made the active and inactive calls. Rule as the data show it: actives have a measured IC50 and inactives only a lower limit.

Target: Envelope glycoprotein gp160 (Human immunodeficiency virus 1, UniProt Q6QLK5)
Assay: inhibitors of HIV fusion peptide binding, primary screen, biochemical, uHTS, fluorescence dequenching (AID 1986)

Envelope glycoprotein gp160, sequence (Q6QLK5 whole entry, the tested form may be a part): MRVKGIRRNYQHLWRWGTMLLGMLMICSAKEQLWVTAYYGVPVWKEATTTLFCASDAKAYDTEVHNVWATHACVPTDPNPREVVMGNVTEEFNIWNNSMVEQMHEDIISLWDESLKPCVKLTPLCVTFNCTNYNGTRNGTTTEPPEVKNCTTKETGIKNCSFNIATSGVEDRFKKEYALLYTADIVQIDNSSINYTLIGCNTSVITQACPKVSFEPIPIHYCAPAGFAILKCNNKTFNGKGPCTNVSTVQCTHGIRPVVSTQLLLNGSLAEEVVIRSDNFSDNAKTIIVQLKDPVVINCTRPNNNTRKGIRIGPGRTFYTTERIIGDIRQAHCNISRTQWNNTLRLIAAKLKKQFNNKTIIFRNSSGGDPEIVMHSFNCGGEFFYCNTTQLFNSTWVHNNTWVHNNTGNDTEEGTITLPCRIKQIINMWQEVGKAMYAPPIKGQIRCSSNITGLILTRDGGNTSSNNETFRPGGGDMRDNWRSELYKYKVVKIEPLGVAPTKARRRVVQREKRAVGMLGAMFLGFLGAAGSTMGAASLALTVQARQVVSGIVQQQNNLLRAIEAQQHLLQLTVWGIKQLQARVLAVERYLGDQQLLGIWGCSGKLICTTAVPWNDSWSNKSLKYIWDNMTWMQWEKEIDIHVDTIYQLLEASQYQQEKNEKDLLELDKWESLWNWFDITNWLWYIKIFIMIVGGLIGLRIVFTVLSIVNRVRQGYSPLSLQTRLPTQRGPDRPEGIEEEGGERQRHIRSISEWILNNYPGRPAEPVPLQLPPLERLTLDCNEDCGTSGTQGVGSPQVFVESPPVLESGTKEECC

Row | Structure (SMILES) | IC50
1 | O=C(O)CN1C(=O)/C(=C\c2cc(Br)ccc2OCc2ccccc2F)SC1=S | 10.9 µM (active)
2 | O=C(N/N=C/c1cc(Cl)cc([N+](=O)[O-])c1O)NC12CC3CC(CC(C3)C1)C2 | 23.2 µM (active)
